Results: the supplement of paper PMC9386025

How the values were obtained:
Experiment in all cases: drug sensitivity score (DSS) (DSS (dimensionless)); higher = more sensitive (stronger drug response)
FIMM-PDC1 = patient-derived ovarian cancer cells; conditions: genetic perturbation: none (patient-derived cell culture)
How it was run: (§1)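 Cells, either patient-derived cultures or ovarian cancer cell lines given 100 ng/ml doxycycline for no less than three days to induce shRNA, went into 384-well plates at 1 000 – 1 500 per well over drugs pre-plated in five concentrations across a 10,000-fold range. The plates were held for three days at 37 °C with 5.0 % CO2. Cell viability was then taken from CellTiter-Glo luminescence on a PHERAstar FS. For each drug, a drug sensitivity score from its dose-response curve was obtained by a method described earlier.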

FIMM-PDC3 = patient-derived ovarian cancer cells; conditions: genetic perturbation: none (patient-derived cell culture)
How it was run: as §1

FIMM-PDC4 = patient-derived ovarian cancer cells; conditions: genetic perturbation: none (patient-derived cell culture)
How it was run: as §1

FIMM-PDC5 = patient-derived ovarian cancer cells; conditions: genetic perturbation: none (patient-derived cell culture)
How it was run: as §1

FIMM-PDC6 = patient-derived ovarian cancer cells; conditions: genetic perturbation: none (patient-derived cell culture)
How it was run: as §1

FIMM-PDC7 = patient-derived ovarian cancer cells; conditions: genetic perturbation: none (patient-derived cell culture)
How it was run: as §1

JHOS2 = tested on: JHOS2
How it was run: as §1

Kuramochi = tested on: Kuramochi
How it was run: as §1

OVSAHO = tested on: OVSAHO
How it was run: as §1

[1] = genetic perturbation: DOX-induced PTK7 shRNA knockdown
[2] = genetic perturbation: DOX-induced control shRNA

| Compound | drug sensitivity score (FIMM-PDC1) | drug sensitivity score (FIMM-PDC3) | drug sensitivity score (FIMM-PDC4) | drug sensitivity score (FIMM-PDC5) | drug sensitivity score (FIMM-PDC6) | drug sensitivity score (FIMM-PDC7) | drug sensitivity score (JHOS2; [1]) | drug sensitivity score (JHOS2; [2]) | drug sensitivity score (Kuramochi; [1]) | drug sensitivity score (Kuramochi; [2]) | drug sensitivity score (OVSAHO; [1]) | drug sensitivity score (OVSAHO; [2]) |
| --- | --- | --- | --- | --- | --- | --- | --- | --- | --- | --- | --- | --- |
| CN1CC[C@H](c2c(O)cc(O)c3c(=O)cc(-c4ccccc4Cl)oc23)[C@H](O)C1 [Alvocidib] | 16.6 | 15.8 | 17.4 | 22.2 | 16.7 | 20.4 | 14.4 | 14.5 | 16.6 | 14.8 | 16.7 | 14.7 |
| COc1cccc2c1C(=O)c1c(O)c3c(c(O)c1C2=O)C[C@@](O)(C(C)=O)C[C@@H]3O[C@H]1C[C@H](N)[C@H](O)[C@H](C)O1 [Daunorubicin] | 4.65 | 7.8 | 8.4 | 10.7 | 7.4 | 9 | 4 | 5.6 | 4.2 | 4.6 | 8.3 | 4.4 |
| CC[C@]1(O)C[C@@H]2CN(CCc3c([nH]c4ccccc34)[C@@](C(=O)OC)(c3cc4c(cc3OC)N(C)[C@H]3[C@@](O)(C(=O)OC)[C@H](OC(C)=O)[C@]5(CC)C=CCN6CC[C@]43[C@@H]65)C2)C1 [Vinblastine] | 15.3 | 13 | 7.6 | 8.2 | 0.7 | 8.9 | 3.7 | 9.7 | 2.8 | 3.9 | 2 | 9 |
| COc1cc(Nc2ncc3c(n2)-c2ccc(Cl)cc2C(c2c(F)cccc2OC)=NC3)ccc1C(=O)O [Alisertib] | 0.85 | 6.2 | 3.9 | 7.2 | < 0 | < 0 | 1.9 | 0.9 | 6.25 | 4.2 | 7 | 2.4 |
| C=CC(=O)Nc1cc2c(Nc3ccc(F)c(Cl)c3)ncnc2cc1OCCCN1CCOCC1 [Canertinib] | 7.4 | 15.7 | 20.4 | 27.5 | 20.8 | 12.1 | 8.1 | 7.4 | 8.9 | 8.6 | 8.2 | 7.6 |
| CC(C)[C@H](C(=O)Nc1ccc(C(=O)NO)cc1)c1ccccc1 [AR-42] | 9.25 | 10 | 5.8 | 10.9 | 10.5 | 9.8 | 9.1 | 8.5 | 12.8 | 6.6 | 12.4 | 9 |
| COc1cc2c(cc1OC(C)C)[C@H](c1ccc(Cl)cc1)N(c1ccc(N(C)C[C@H]3CC[C@H](N4CCN(C)C(=O)C4)CC3)cc1)C(=O)C2 [NVP-CGM097] | 5.45 | 7.4 | 9.2 | 15.4 | 10.9 | 10 | 5.9 | 6.1 | 5.75 | 8 | 5.2 | 8.5 |
| O=C(Nc1cccc(NC(=O)c2cccc(O)c2O)c1)c1cccc(O)c1O [MST-312] | 2.9 | 9 | 6.7 | 3.7 | 3.3 | < 0 | 11.6 | 11.5 | 6.05 | 8.6 | 9.6 | 6.9 |
| C#Cc1cccc(Nc2ncnc3cc4c(cc23)OCCOCCOCCO4)c1 [Icotinib] | 0.8 | 8.6 | 10.5 | 12.7 | 6.1 | 5.3 | < 0 | 1 | 0.6 | 1.6 | 0.8 | 0.5 |
| Cn1nccc1Nc1nccc(-c2ccn([C@H](CO)c3ccc(Cl)c(F)c3)c(=O)c2)n1 [Ravoxertinib] | 1.2 | 2.2 | 7.9 | 9.2 | 6.6 | 2.6 | 1.5 | 3.6 | 3.45 | < 0 | < 0 | 2.4 |
| COc1cccc2c1C(=O)c1c(O)c3c(c(O)c1C2=O)C[C@@](O)(C(=O)CO)C[C@@H]3O[C@H]1C[C@H](N)[C@@H](O)[C@H](C)O1 [Epirubicin] | 4.2 | 6.6 | 7.9 | 5.6 | 3.5 | 7.4 | 7.1 | 6.1 | 4.45 | 3.9 | 5.8 | 5.2 |
| Cc1nn(C)c(COc2ccc(N3CCN(S(=O)(=O)N(C)C)CC3)cc2)c1-c1cccc2c(CCCOc3cccc4ccccc34)c(C(=O)O)n(CCN3CCOCC3)c12 | 5.7 | 8.8 | 7.2 | 4.9 | 4.6 | 6.5 | 7.3 | 3.4 | 6.25 | 5.8 | 10.1 | 4.9 |
| CC(=O)[C@]1(O)Cc2c(O)c3c(c(O)c2[C@@H](O[C@H]2C[C@H](N)[C@H](O)[C@H](C)O2)C1)C(=O)c1ccccc1C3=O [Idarubicin] | 5.1 | 8.1 | 8.2 | 8.7 | 5.7 | 8.8 | 7.2 | 6.9 | 5.75 | 6 | 6.8 | 4.8 |
| CCN(CC)CCOc1ccc(C(=C(Cl)c2ccccc2)c2ccccc2)cc1 [Clomifene] | 7.05 | 5.7 | 7.5 | 8 | 5.2 | 7 | 6.9 | 4.1 | 5.45 | 2 | 5.2 | 4.2 |
| C1=N/C2=N/c3ccc(OCCN4CCCC4)c(c3)COC/C=C/COCc3cccc(c3)C(=C1)N2 [Pacritinib] | 6.7 | 7.7 | 7.6 | 10.6 | 7.5 | 5 | 9.3 | 10.9 | 7.05 | 9.3 | 10.1 | 9.6 |
| CCC1=C[C@@H]2CN(C1)Cc1c([nH]c3ccccc13)[C@@](C(=O)OC)(c1cc3c(cc1OC)N(C)[C@H]1[C@@](O)(C(=O)OC)[C@H](OC(C)=O)[C@]4(CC)C=CCN5CC[C@]31[C@@H]54)C2 [Vinorelbine] | 19.2 | 26.2 | 26.7 | 27.2 | 18.6 | 12.8 | 19.4 | 17.1 | 20.3 | 7.2 | 22.6 | 18.5 |
